According to US20200237759A1, “DOSAGE REGIME AND METHOD FOR TREATING PULMONARY ARTERIAL HYPERTENSION” (Altavant Sciences GmbH, priority 2019, published 2020):

Tests used:
[1] = clinical; settings: human, plasma, oral, 100 mg
Description: (§1) Food effect was to be evaluated in Part 1, Period 2.
(§2) Part 2 (MAD): BID doses (separated by approximately 12 hours on Days 1 to 13) and a single AM dose on Day 14. One or more of the MAD Cohort could have been dosed once daily (QD).
(§3) Pharmacokinetic data were to be summarized descriptively.

[2] = Part 2 MAD plasma pharmacokinetics, BID oral KAR5585 for 14 days; settings: for tmax: Median
Description: as §1, §2, §3

[3] = 100 mg (Cohort 2) to 400 mg (Cohort 4) BID fed, 4-fold increase in dose
[4] = 100 mg BID fasted, Cohort 1, Day 1 AM, Mean
[5] = 100 mg BID fasted, Cohort 1, Day 14, Mean
[6] = 100 mg BID fed, Cohort 2, Day 1 AM, Mean
[7] = 100 mg BID fed, Cohort 2, Day 1 PM, Geo. Mean
[8] = 100 mg BID fed, Cohort 2, Day 1 PM, Mean
[9] = 100 mg BID fed, Cohort 2, Day 7 AM, Geo. Mean
[10] = 100 mg BID fed, Cohort 2, Day 7 AM, Mean
[11] = 100 mg BID fed, Cohort 2, Day 7 PM, Geo. Mean
[12] = 100 mg BID fed, Cohort 2, Day 14 AM, Geo. Mean
[13] = 100 mg BID fed, Cohort 2, Day 14 AM, Mean
[14] = 100 mg KAR5585 BID, fasted (Part 2, Cohort 1)
[15] = 200 mg BID fed, Cohort 3, Day 1 AM, Geo. Mean
[16] = 200 mg BID fed, Cohort 3, Day 1 PM, Geo. Mean
[17] = 200 mg BID fed, Cohort 3, Day 7 AM, Geo. Mean
[18] = 200 mg BID fed, Cohort 3, Day 7 AM, Mean
[19] = 200 mg BID fed, Cohort 3, Day 7 PM, Geo. Mean
[20] = 200 mg BID fed, Cohort 3, Day 7 PM, Mean
[21] = 200 mg BID fed, Cohort 3, Day 14 AM, Geo. Mean
[22] = 200 mg BID fed, Cohort 3, Day 14 AM, Mean
[23] = 400 mg BID fed, Cohort 4, Day 1 AM, Geo. Mean
[24] = 400 mg BID fed, Cohort 4, Day 1 PM, Geo. Mean
[25] = 400 mg BID fed, Cohort 4, Day 7 AM, Geo. Mean
[26] = 400 mg BID fed, Cohort 4, Day 7 PM, Geo. Mean
[27] = 400 mg BID fed, Cohort 4, Day 7 PM, Mean
[28] = 400 mg BID fed, Cohort 4, Day 14 AM, Geo. Mean
[29] = 400 mg BID fed, Cohort 4, Day 14 AM, Mean

concentration at 24 h [1]: 0.0197 µg/mL
increase in mean AUC0-12, Day 1 [2, 3]: 7.0 fold
increase in mean AUC0-12, Day 14 [2, 3]: 4.6 fold
increase in mean AUC0-24, Day 1 [2, 3]: 6.45 fold
increase in mean AUC0-24, Day 14 [2, 3]: 4.45 fold
increase in mean Cmax, Day 1 [2, 3]: 6.9 fold
increase in mean Cmax, Day 14 [2, 3]: ~4.5 fold
AUC0-12 [2, 4]: 0.741 µg·h/mL
Cmax [2, 4]: 0.121 µg/mL
t1/2 [2, 4]: 3.43 h
tmax ([2]; 100 mg BID fasted, Cohort 1, Day 1 AM): 3.0 h
AUC0-12 [2, 5]: 1.28 µg·h/mL
AUC0-24 [2, 5]: 1.65 µg·h/mL
Cmax [2, 5]: 0.194 µg/mL
t1/2 [2, 5]: 18.8 h
tmax ([2]; 100 mg BID fasted, Cohort 1, Day 14): 3.0 h
t1/2 ([2]; 100 mg BID fed, Cohort 2, Day 1 AM, Geo. Mean): 4.16 h
AUC0-12 [2, 6]: 0.47 µg·h/mL
Cmax [2, 6]: 0.0859 µg/mL
tmax ([2]; 100 mg BID fed, Cohort 2, Day 1 AM): 2.0 h
AUC0-12 [2, 7]: 0.714 µg·h/mL
AUC0-24 [2, 7]: 1.16 µg·h/mL
AUC0-∞ [2, 7]: 1.09 µg·h/mL
Cmax [2, 7]: 0.119 µg/mL
AUC0-12 [2, 8]: 0.748 µg·h/mL
AUC0-24 [2, 8]: 1.22 µg·h/mL
tmax ([2]; 100 mg BID fed, Cohort 2, Day 1 PM): 3.0 h
AUC0-12 [2, 9]: 1.05 µg·h/mL
AUC0-∞ [2, 9]: 1.38 µg·h/mL
t1/2 [2, 9]: 5.24 h
Cmax [2, 10]: 0.168 µg/mL
t1/2 [2, 10]: 5.31 h
tmax ([2]; 100 mg BID fed, Cohort 2, Day 7 AM): 3.0 h
AUC0-12 [2, 11]: 0.875 µg·h/mL
AUC0-24 [2, 11]: 1.93 µg·h/mL
AUC0-∞ [2, 11]: 1.7 µg·h/mL
Cmax [2, 11]: 0.106 µg/mL
t1/2 [2, 11]: 7.91 h
Cmax ([2]; 100 mg BID fed, Cohort 2, Day 7 PM, Mean): 0.112 µg/mL
tmax ([2]; 100 mg BID fed, Cohort 2, Day 7 PM): 6.0 h
RCmax ([2]; 100 mg BID fed, Cohort 2, Day 14 AM, Day 14/Day 1 accumulation ratio, Geo. Mean): 1.90
AUC0-12 [2, 12]: 0.9 µg·h/mL
AUC0-24 [2, 12]: 1.22 µg·h/mL
AUC0-∞ [2, 12]: 1.78 µg·h/mL
Cmax [2, 12]: 0.155 µg/mL
t1/2 [2, 12]: 19.0 h
AUC0-12 [2, 13]: 0.943 µg·h/mL
AUC0-24 [2, 13]: 1.27 µg·h/mL
Cmax [2, 13]: 0.168 µg/mL
t1/2 [2, 13]: 19.6 h
tmax ([2]; 100 mg BID fed, Cohort 2, Day 14 AM): 2.0 h
time to peak plasma concentrations (range), Day 1 ([2]; 100 mg KAR5585 BID, Part 2 Cohort 1 (fasted state)): 2.0 to 6.0 h
median tmax Day 14 ([2]; 100 mg KAR5585 BID, fasted): 3.0 hour postdose
mean peak concentration relative to corresponding peak mean concentration of KAR5585, Day 1 [2, 14]: approximately 7.25 fold
mean peak concentration relative to corresponding peak mean concentration of KAR5585, Day 14 [2, 14]: ~9.1 fold
half-life, Day 14 ([2]; 100 mg KAR5585 BID, fasted state): 18.8 h
median tmax Day 14 ([2]; 100 mg KAR5585 BID, fed): 3.0 hour postdose
AUC0-12 [2, 15]: 1.62 µg·h/mL
AUC0-∞ [2, 15]: 1.98 µg·h/mL
t1/2 [2, 15]: 4.41 h
AUC0-12 ([2]; 200 mg BID fed, Cohort 3, Day 1 AM, Mean): 1.7 µg·h/mL
tmax ([2]; 200 mg BID fed, Cohort 3, Day 1 AM): 3.0 h
AUC0-24 [2, 16]: 3.54 µg·h/mL
AUC0-∞ [2, 16]: 2.64 µg·h/mL
Cmax [2, 16]: 0.307 µg/mL
t1/2 [2, 16]: 5.95 h
AUC0-12 ([2]; 200 mg BID fed, Cohort 3, Day 1 PM, Mean): 2 µg·h/mL
tmax ([2]; 200 mg BID fed, Cohort 3, Day 1 PM): 4.0 h
RCmax ([2]; 200 mg BID fed, Cohort 3, Day 7 AM, Day 7/Day 1 accumulation ratio, Mean): 1.00
AUC0-∞ [2, 17]: 2.61 µg·h/mL
Cmax [2, 17]: 0.332 µg/mL
t1/2 [2, 17]: 4.57 h
AUC0-∞ [2, 18]: 2.8 µg·h/mL
Cmax [2, 18]: 0.359 µg/mL
t1/2 [2, 18]: 4.61 h
tmax ([2]; 200 mg BID fed, Cohort 3, Day 7 AM): 4.0 h
AUC0-12 [2, 19]: 1.49 µg·h/mL
AUC0-24 [2, 19]: 3.62 µg·h/mL
AUC0-∞ [2, 19]: 2.27 µg·h/mL
Cmax [2, 19]: 0.212 µg/mL
t1/2 [2, 19]: 6.48 h
AUC0-12 [2, 20]: 1.54 µg·h/mL
AUC0-24 [2, 20]: 3.81 µg·h/mL
AUC0-∞ [2, 20]: 2.28 µg·h/mL
Cmax [2, 20]: 0.222 µg/mL
tmax ([2]; 200 mg BID fed, Cohort 3, Day 7 PM): 8.0 h
AUC0-12 [2, 21]: 1.67 µg·h/mL
AUC0-24 [2, 21]: 2.2 µg·h/mL
t1/2 [2, 21]: 24.1 h
AUC0-12 [2, 22]: 1.82 µg·h/mL
AUC0-24 [2, 22]: 2.38 µg·h/mL
Cmax [2, 22]: 0.319 µg/mL
t1/2 [2, 22]: 25.0 h
tmax ([2]; 200 mg BID fed, Cohort 3, Day 14 AM): 3.0 h
AUC0-∞ [2, 23]: 3.4 µg·h/mL
t1/2 [2, 23]: 3.71 h
AUC0-∞ ([2]; 400 mg BID fed, Cohort 4, Day 1 AM, Mean): 3.78 µg·h/mL
tmax ([2]; 400 mg BID fed, Cohort 4, Day 1 AM): 3.0 h
AUC0-∞ [2, 24]: 6.86 µg·h/mL
t1/2 [2, 24]: 5.3 h
tmax ([2]; 400 mg BID fed, Cohort 4, Day 1 PM): 4.0 h
RCmax ([2]; 400 mg BID fed, Cohort 4, Day 7 AM, Day 7/Day 1 accumulation ratio, Mean): 2.00
AUC0-∞ [2, 25]: 7.48 µg·h/mL
Cmax [2, 25]: 0.96 µg/mL
t1/2 [2, 25]: 3.89 h
t1/2 ([2]; 400 mg BID fed, Cohort 4, Day 7 AM, Mean): 3.94 h
tmax ([2]; 400 mg BID fed, Cohort 4, Day 7 AM): 4.0 h
RAUC0-12 ([2]; 400 mg BID fed, Cohort 4, Day 7 PM, Day 7/Day 1 accumulation ratio, Geo. Mean): 1.50
AUC0-12 [2, 26]: 4.36 µg·h/mL
AUC0-∞ [2, 26]: 6.45 µg·h/mL
Cmax [2, 26]: 0.574 µg/mL
t1/2 [2, 26]: 5.08 h
AUC0-12 [2, 27]: 4.61 µg·h/mL
AUC0-∞ [2, 27]: 6.52 µg·h/mL
Cmax [2, 27]: 0.608 µg/mL
t1/2 [2, 27]: 5.10 h
tmax ([2]; 400 mg BID fed, Cohort 4, Day 7 PM): 6.0 h
AUC0-12 [2, 28]: 4.16 µg·h/mL
AUC0-24 [2, 28]: 5.41 µg·h/mL
AUC0-∞ [2, 28]: 8.12 µg·h/mL
Cmax [2, 28]: 0.717 µg/mL
t1/2 [2, 28]: 30.4 h
AUC0-12 [2, 29]: 4.35 µg·h/mL
Cmax [2, 29]: 0.749 µg/mL
t1/2 [2, 29]: 30.6 h
tmax ([2]; 400 mg BID fed, Cohort 4, Day 14 AM): 3.0 h
tmax Day 7 evening dose ([2]; 400 mg KAR5585 BID, fed): 6 h
study day by which steady-state plasma levels were achieved ([2]; BID oral KAR5585 for 14 days): ≤ 7 days
SMILES: Nc1nc(O[C@H](c2ccc(Cl)cc2-c2ccccc2)C(F)(F)F)cc(N2CCC3(CC2)CN[C@H](C(=O)O)C3)n1 [KAR5417, (S)-8-(2-amino-6-((R)-1-(5-chloro-[1,1′-biphenyl]-2-yl)-2,2,2-trifluoroeth-oxy)pyrimidin-4-yl)-2,8-diazaspiro[4.5]decane-3-carboxylic acid]
